Reference: ChEMBL document CHEMBL1141615, “Targeting RNA with cysteine-constrained peptides” (Bioorg Med Chem Lett, 2008)

Test: Binding affinity to BIV transactivating response element RNA
Design: species or system Bovine immunodeficiency virus

Compound: C[C@@H](O)[C@@H]1NC(=O)[C@H](CO)NC(=O)[C@H](Cc2c[nH]c3ccccc23)NC(=O)[C@H](CCC(N)=O)NC(=O)[C@H](Cc2cnc[nH]2)NC(=O)[C@H]([C@@H](C)O)NC(=O)[C@@H](N)CSSC[C@H](C(N)=O)NC(=O)[C@H](CCCCN)NC1=O
- Kd: 9.1 µM

Compound: C[C@@H](O)[C@@H]1NC(=O)CNC(=O)[C@@H](N)CSSC[C@H](C(N)=O)NC(=O)[C@H](CCC(N)=O)NC(=O)[C@@H]2CCCN2C(=O)[C@H](Cc2c[nH]cn2)NC(=O)[C@H](Cc2cnc[nH]2)NC(=O)[C@H](Cc2c[nH]c3ccccc23)NC1=O
- Kd: 7.9 µM
